ChEMBL document CHEMBL2163283, “Design and synthesis of novel stiripentol analogues as potential anticonvulsants” (Eur J Med Chem, 2012)
Active and inactive are the calls of the source. No cut-off for these calls is given here.

Columns and labels:
[1] = test system: Mus musculus; assay: Neurotoxicity in Swiss albino mouse assessed as effect on hindlimb grip strength at 747 umol/kg, sc administered measured every 15 mins for 2 hrs; format: toxicity, organism-based; conditions: in vivo
[2] = test system: Mus musculus; assay: Anticonvulsant activity in ip dosed Swiss albino mouse assessed as protection against subcutaneous pentylenetetrazol-induced seizures administered 30 mins before pentylenetetrazole challenge measured after 30 mins; format: functional
[3] = test system: Mus musculus; assay: Neurotoxicity in Swiss albino mouse assessed as climbing response to inverted mesh at 747 umol/kg, sc administered measured every 15 mins for 2 hrs by wire mesh grasping test; format: toxicity, organism-based; conditions: in vivo
[4] = test system: Mus musculus; assay: Anticonvulsant activity in Swiss albino mouse assessed as protection against subcutaneous pentylenetetrazol-induced seizures at 747 umol/kg, ip administered 30 mins before pentylenetetrazole challenge measured after 30 mins; format: functional
[5] = test system: Mus musculus; assay: Anticonvulsant activity in Swiss albino mouse assessed as protection against subcutaneous pentylenetetrazol-induced seizures at 427 umol/kg, ip administered 30 mins before pentylenetetrazole challenge measured after 30 mins; format: functional
[6] = test system: Mus musculus; assay: Anticonvulsant activity in ip dosed Swiss albino mouse assessed as maximal electroshock-induced seizures administered 30 mins before electroshock challenge; format: functional
[7] = test system: Mus musculus; assay: Anticonvulsant activity in Swiss albino mouse assessed as protection against subcutaneous pentylenetetrazol-induced seizures at 384 umol/kg, ip administered 30 mins before pentylenetetrazole challenge measured after 30 mins; format: functional
[8] = test system: Mus musculus; assay: Anticonvulsant activity in Swiss albino mouse assessed as maximal electroshock-induced seizures at 640 umol/kg, ip administered 30 mins before electroshock challenge; format: functional
[9] = test system: Mus musculus; assay: Anticonvulsant activity in Swiss albino mouse assessed as protection against subcutaneous pentylenetetrazol-induced seizures at 534 umol/kg, ip administered 30 mins before pentylenetetrazole challenge measured after 30 mins; format: functional
[10] = test system: Mus musculus; assay: Anticonvulsant activity in Swiss albino mouse assessed as protection against subcutaneous pentylenetetrazol-induced seizures at 640 umol/kg, ip administered 30 mins before pentylenetetrazole challenge measured after 30 mins; format: functional
[11] = test system: Mus musculus; assay: Anticonvulsant activity in Swiss albino mouse assessed as protection against subcutaneous pentylenetetrazol-induced seizures at 491 umol/kg, ip administered 30 mins before pentylenetetrazole challenge measured after 30 mins; format: functional
[12] = test system: Mus musculus; assay: Anticonvulsant activity in Swiss albino mouse assessed as protection against subcutaneous pentylenetetrazol-induced seizures at 576 umol/kg, ip administered 30 mins before pentylenetetrazole challenge measured after 30 mins; format: functional
[13] = test system: Mus musculus; assay: Anticonvulsant activity in Swiss albino mouse assessed as protection against subcutaneous pentylenetetrazol-induced seizures at 390 umol/kg, ip administered 30 mins before pentylenetetrazole challenge measured after 30 mins relative to stiripentol; format: functional
[14] = test system: Mus musculus; assay: Anticonvulsant activity in Swiss albino mouse assessed as maximal electroshock-induced seizures at 390 umol/kg, ip administered 30 mins before electroshock challenge; format: functional, organism-based
[15] = test system: Mus musculus; assay: Anticonvulsant activity in Swiss albino mouse assessed as protection against subcutaneous pentylenetetrazol-induced seizures at 390 umol/kg, ip administered 30 mins before pentylenetetrazole challenge measured after 30 mins; format: functional
[16] = test system: Mus musculus; assay: Anticonvulsant activity in Swiss albino mouse assessed as protection against subcutaneous pentylenetetrazol-induced seizures at 108 umol/kg, ip administered 30 mins before pentylenetetrazole challenge measured after 30 mins; format: functional
[17] = test system: Mus musculus; assay: Anticonvulsant activity in Swiss albino mouse assessed as maximal electroshock-induced seizures at 410 umol/kg, ip administered 30 mins before electroshock challenge; format: functional
[18] = test system: Mus musculus; assay: Anticonvulsant activity in Swiss albino mouse assessed as protection against subcutaneous pentylenetetrazol-induced seizures at 410 umol/kg, ip administered 30 mins before pentylenetetrazole challenge measured after 30 mins relative to stiripentol; format: functional
[19] = test system: Mus musculus; assay: Anticonvulsant activity in Swiss albino mouse assessed as protection against subcutaneous pentylenetetrazol-induced seizures at 410 umol/kg, ip administered 30 mins before pentylenetetrazole challenge measured after 30 mins; format: functional
[20] = test system: Mus musculus; assay: Neurotoxicity in Swiss albino mouse assessed as effect on hindlimb grip strength at 350 umol/kg, sc administered measured every 15 mins for 2 hrs; format: toxicity, organism-based; conditions: in vivo
[21] = test system: Mus musculus; assay: Neurotoxicity in Swiss albino mouse assessed as climbing response to inverted mesh at 350 umol/kg, sc administered measured every 15 mins for 2 hrs by wire mesh grasping test; format: toxicity, organism-based; conditions: in vivo
[22] = test system: Mus musculus; assay: Anticonvulsant activity in Swiss albino mouse assessed as protection against subcutaneous pentylenetetrazol-induced seizures at 350 umol/kg, ip administered 30 mins before pentylenetetrazole challenge measured after 30 mins; format: functional
[23] = test system: Mus musculus; assay: Anticonvulsant activity in Swiss albino mouse assessed as maximal electroshock-induced seizures at 350 umol/kg, ip administered 30 mins before electroshock challenge; format: functional
[24] = test system: Mus musculus; assay: Anticonvulsant activity in Swiss albino mouse assessed as protection against subcutaneous pentylenetetrazol-induced seizures at 350 umol/kg, ip administered 30 mins before pentylenetetrazole challenge measured after 30 mins relative to stiripentol; format: functional
[25] = test system: Mus musculus; assay: Anticonvulsant activity in Swiss albino mouse assessed as protection against subcutaneous pentylenetetrazol-induced seizures at 370 umol/kg, ip administered 30 mins before pentylenetetrazole challenge measured after 30 mins; format: functional
[26] = test system: Mus musculus; assay: Anticonvulsant activity in Swiss albino mouse assessed as protection against subcutaneous pentylenetetrazol-induced seizures at 370 umol/kg, ip administered 30 mins before pentylenetetrazole challenge measured after 30 mins relative to stiripentol; format: functional
[27] = test system: Mus musculus; assay: Anticonvulsant activity in Swiss albino mouse assessed as maximal electroshock-induced seizures at 370 umol/kg, ip administered 30 mins before electroshock challenge; format: functional, organism-based
[28] = test system: Mus musculus; assay: Anticonvulsant activity in Swiss albino mouse assessed as maximal electroshock-induced seizures at 340 umol/kg, ip administered 30 mins before electroshock challenge; format: functional
[29] = test system: Mus musculus; assay: Anticonvulsant activity in Swiss albino mouse assessed as protection against subcutaneous pentylenetetrazol-induced seizures at 340 umol/kg, ip administered 30 mins before pentylenetetrazole challenge measured after 30 mins; format: functional
[30] = test system: Mus musculus; assay: Anticonvulsant activity in Swiss albino mouse assessed as protection against subcutaneous pentylenetetrazol-induced seizures at 340 umol/kg, ip administered 30 mins before pentylenetetrazole challenge measured after 30 mins relative to stiripentol; format: functional
[31] = test system: Mus musculus; assay: Anticonvulsant activity in Swiss albino mouse assessed as protection against subcutaneous pentylenetetrazol-induced seizures at 346 umol/kg, ip administered 30 mins before pentylenetetrazole challenge measured after 30 mins; format: functional
[32] = test system: Mus musculus; assay: Neurotoxicity in Swiss albino mouse assessed as effect on hindlimb grip strength at 346 umol/kg, sc administered measured every 15 mins for 2 hrs; format: toxicity, organism-based; conditions: in vivo
[33] = test system: Mus musculus; assay: Anticonvulsant activity in Swiss albino mouse assessed as protection against subcutaneous pentylenetetrazol-induced seizures at 346 umol/kg, ip administered 30 mins before pentylenetetrazole challenge measured after 30 mins relative to stiripentol; format: functional
[34] = test system: Mus musculus; assay: Neurotoxicity in Swiss albino mouse assessed as climbing response to inverted mesh at 346 umol/kg, sc administered measured every 15 mins for 2 hrs by wire mesh grasping test; format: toxicity, organism-based; conditions: in vivo
[35] = test system: Mus musculus; assay: Anticonvulsant activity in Swiss albino mouse assessed as maximal electroshock-induced seizures at 346 umol/kg, ip administered 30 mins before electroshock challenge; format: functional
[36] = test system: Mus musculus; assay: Anticonvulsant activity in Swiss albino mouse assessed as protection against subcutaneous pentylenetetrazol-induced seizures at 330 umol/kg, ip administered 30 mins before pentylenetetrazole challenge measured after 30 mins; format: functional
[37] = test system: Mus musculus; assay: Anticonvulsant activity in Swiss albino mouse assessed as protection against subcutaneous pentylenetetrazol-induced seizures at 330 umol/kg, ip administered 30 mins before pentylenetetrazole challenge measured after 30 mins relative to stiripentol; format: functional
[38] = test system: Mus musculus; assay: Anticonvulsant activity in Swiss albino mouse assessed as maximal electroshock-induced seizures at 330 umol/kg, ip administered 30 mins before electroshock challenge; format: functional
[39] = test system: Mus musculus; assay: Anticonvulsant activity in Swiss albino mouse assessed as maximal electroshock-induced seizures at 159 umol/kg, ip administered 30 mins before electroshock challenge; format: functional
[40] = test system: Mus musculus; assay: Anticonvulsant activity in Swiss albino mouse assessed as protection against subcutaneous pentylenetetrazol-induced seizures at 159 umol/kg, ip administered 30 mins before pentylenetetrazole challenge measured after 30 mins; format: functional, organism-based
[41] = test system: Mus musculus; assay: Anticonvulsant activity in Swiss albino mouse assessed as protection against subcutaneous pentylenetetrazol-induced seizures at 357 umol/kg, ip administered 30 mins before pentylenetetrazole challenge measured after 30 mins; format: functional
[42] = test system: Mus musculus; assay: Anticonvulsant activity in Swiss albino mouse assessed as protection against subcutaneous pentylenetetrazol-induced seizures at 357 umol/kg, ip administered 30 mins before pentylenetetrazole challenge measured after 30 mins relative to stiripentol; format: functional
[43] = test system: Mus musculus; assay: Anticonvulsant activity in Swiss albino mouse assessed as maximal electroshock-induced seizures at 357 umol/kg, ip administered 30 mins before electroshock challenge; format: functional

## CC(C)(C)C(O)/C=C/c1ccc2c(c1)OCO2 (centres undefined) [STIRIPENTOL]
[1]
  Activity: Non-toxic
[2]
  ED50: 115 mg/kg
[3]
  Activity: Non-toxic
[4]
  Activity: 100%
[5]
  Activity: 33%
[6]
  ED50: 277 mg/kg
[7]
  Activity: 16%
[8]
  Activity: 66%
[9]
  Activity: 66%
[10]
  Activity: 83%
[11]
  Activity: 50%
[12]
  Activity: 83%

## Cc1ccccc1NC(=O)N/N=C(\C=C\c1ccc2c(c1)OCO2)C(C)(C)C
[13]
  Activity: 1.48 ratio to stiripentol
[14]
  Activity: inactive
[15]
  Activity: 83%

## CCC1(c2ccccc2)C(=O)NC(=O)NC1=O [PHENOBARBITAL]
[16]
  Activity: 100%

## Cc1ccc(NC(=O)N2N=C(C(C)(C)C)CC2c2ccc3c(c2)OCO3)cc1 (racemic)
[13]
  Activity: 1.48 ratio to stiripentol
[14]
  Activity: inactive
[15]
  Activity: 83%

## CC(C)(C)C1=NN(C(=O)Nc2ccccc2)C(c2ccc3c(c2)OCO3)C1 (racemic)
[17]
  Activity: 16%
[18]
  Activity: 1.3%
[19]
  Activity: 66%

## CC(C)(C)C1=NN(C(=O)Nc2ccc(F)cc2)C(c2ccc3c(c2)OCO3)C1 (racemic)
[13]
  Activity: 1.09 ratio to stiripentol
[14]
  Activity: inactive
[15]
  Activity: 33%

## CC(C)(C)C1=NN(C(=O)c2ccc(Br)cc2)C(c2ccc3c(c2)OCO3)C1 (racemic)
[2]
  ED50: 110 mg/kg
[20]
  Activity: Non-toxic
[21]
  Activity: Non-toxic
[22]
  Activity: 100%
[23]
  Activity: 16%
[24]
  Activity: 2.13%

## Cc1ccc(NC(=O)N/N=C(\C=C\c2ccc3c(c2)OCO3)C(C)(C)C)cc1
[13]
  Activity: 0.98 ratio to stiripentol
[14]
  Activity: inactive
[15]
  Activity: 16%

## CC(C)(C)C(/C=C/c1ccc2c(c1)OCO2)=N/NC(=O)Nc1ccc(Cl)cc1
[25]
  Activity: 33%
[26]
  Activity: 1.15%
[27]
  Activity: inactive

## CC(C)(C)C1=NN(C(=O)c2ccc(Cl)cc2)C(c2ccc3c(c2)OCO3)C1 (racemic)
[13]
  Activity: 1.26 ratio to stiripentol
[14]
  Activity: inactive
[15]
  Activity: 50%

## CC(C)(C)C1=NN(C(=O)Nc2ccc(Cl)cc2Cl)C(c2ccc3c(c2)OCO3)C1 (racemic)
[28]
  Activity: inactive
[29]
  Activity: 33%
[30]
  Activity: 1.26%

## CC(C)(C)C(/C=C/c1ccc2c(c1)OCO2)=N/NC(=O)Nc1ccc(F)cc1
[13]
  Activity: 1.26 ratio to stiripentol
[14]
  Activity: inactive
[15]
  Activity: 50%

## Cc1ccccc1C(=O)N1N=C(C(C)(C)C)CC1c1ccc2c(c1)OCO2 (racemic)
[17]
  Activity: 16%
[18]
  Activity: inactive
[19]
  Activity: inactive

## CC(C)(C)C(/C=C/c1ccc2c(c1)OCO2)=N/NC(N)=O
[31]
  Activity: 50%
[32]
  Activity: Toxic
[6]
  ED50: 87 mg/kg
[33]
  Activity: 1.42%
[34]
  Activity: Toxic
[35]
  Activity: 100%

## CC(C)(C)C1=NN(C(=O)Nc2ccc(Br)cc2)C(c2ccc3c(c2)OCO3)C1 (racemic)
[36]
  Activity: 33%
[37]
  Activity: 1.29%
[38]
  Activity: inactive

## O=C1NC(=O)C(c2ccccc2)(c2ccccc2)N1 [PHENYTOIN]
[39]
  Activity: 100%
[40]
  Activity: inactive

## Cc1ccc(C(=O)N2N=C(C(C)(C)C)CC2c2ccc3c(c2)OCO3)cc1 (racemic)
[17]
  Activity: 33%
[18]
  Activity: 1.04%
[19]
  Activity: 33%

## CC(C)(C)C(/C=C/c1ccc2c(c1)OCO2)=N/NC(=O)Nc1ccc(Cl)cc1Cl
[28]
  Activity: 16%
[29]
  Activity: 33%
[30]
  Activity: 1.26%

## CC(C)(C)C(/C=C/c1ccc2c(c1)OCO2)=N/NC(=O)Nc1ccc(Br)cc1
[36]
  Activity: 66%
[37]
  Activity: 1.6%
[38]
  Activity: 16%

## CC(C)(C)C1=NN(C(=O)c2ccc(Cl)cc2Cl)C(c2ccc3c(c2)OCO3)C1 (racemic)
[41]
  Activity: 33%
[42]
  Activity: 1.19%
[43]
  Activity: 16%

## CC(C)(C)C1=NN(C(N)=O)C(c2ccc3c(c2)OCO3)C1 (racemic)
[31]
  Activity: 16%
[33]
  Activity: 1.11%
[35]
  Activity: 66%

## Cc1ccccc1NC(=O)N1N=C(C(C)(C)C)CC1c1ccc2c(c1)OCO2 (racemic)
[13]
  Activity: 0.95 ratio to stiripentol
[14]
  Activity: inactive
[15]
  Activity: 16%

## CC(C)(C)C(/C=C/c1ccc2c(c1)OCO2)=N/NC(=O)Nc1ccccc1
[17]
  Activity: inactive
[18]
  Activity: 1.3%
[19]
  Activity: 66%

## CC(C)(C)C1=NN(C(=O)Nc2ccc(Cl)cc2)C(c2ccc3c(c2)OCO3)C1 (racemic)
[25]
  Activity: 33%
[26]
  Activity: 1.15%
[27]
  Activity: inactive
